Experimental data taken from patent US12343676B2, “Process and system for capture of carbon dioxide” (COMMONWEALTH SCIENTIFIC AND INDUSTRIAL RESEARCH ORGANISATION, priority 2017, dated 2025).
Read-outs that look alike come from different tables or passages of the source.

Assays:
[1] = Protonation constants with enthalpies and entropies, 15.0-45.0 °C; type: physicochemical; conditions: for ΔH° of log K carb Prot 2 / ΔH° of log K prot / ΔS° of log K carb Prot 2 / ΔS° of log K prot: 15.0-45.0 °C
From the text: From the data in Table 2 the first protonation constants of AMPy, log K prot, are similar to MEA and BZA and fall within a suitable range for CO2 capture processes. Importantly, the large and desired protonation enthalpy (ΔH°) observed for BZA is largely maintained in the AMPy derivatives (−53.9 to −46.6).

[2] = pKa at 25 °C; type: physicochemical
[3] = cited from earlier work
[4] = Bubble reactor precipitation propensity with pure CO2; type: physicochemical; conditions: pure CO2 at atmospheric pressure, ambient temperature, aqueous
Experimental: As part of the absorbent screening process concentrated aqueous 3-AMPy was evaluated for its potential to form solid precipitates in the presence of CO2 at high concentrations. […] A simple bubble reactor was utilised to determine the precipitation propensity while passing a pure CO2 gas stream at atmospheric pressure into a concentrated 3-AMPy solution held at ambient temperature. A concentration of 80 wt % 3-AMPy was achieved before precipitation of the carbamate salt was observed. While a precipitate was observed, it is unlikely this will occur in the pilot plant given the aggressive conditions employed in the simple lab based study. Furthermore, similar precipitation behaviour has been observed for other common aqueous amines in highly concentrated solutions but which are operated successfully in pilot plants.

[5] = Carbamate stability constants with enthalpies and entropies, 15.0-45.0 °C; type: physicochemical
[6] = water, Table 7, (aminomethyl)pyridines, read-out: pKa of conjugate acid at 25° C. in water

NCc1ccccn1 [2-AMPy, 2-(aminomethyl)pyridine]
ΔH° of log K carb Prot 2 [1]: −17.9 kJ · mol^−1 | ΔH° of log K prot [1]: −46.6 kJ · mol^−1 | ΔS° of log K carb Prot 2 [1]: 24.5 J · mol^−1 · K^−1 | ΔS° of log K prot [1]: −10.1 J · mol^−1 · K^−1 | log K carb Prot 2 ([1]; 15 °C): 1.96 | log K prot ([1]; 15 °C): 8.98 | log K carb Prot 2 ([1]; 25 °C): 1.86 | log K prot ([1]; 25 °C): 8.68 | log K prot ([1]; 35 °C): 8.41 | log K carb Prot 2 ([1]; 45 °C): 1.75 | log K prot ([1]; 45 °C): 8.19 | pKa ([2]; 25 °C, read-out: pKa): 8.6 | pKa [2, 6]: 8.7

OCCC1CCCCN1 (stereo not shown) [2-piperidinylethanol]
pKa at 25° C. ([3]; Table 8): 10.5 | pKa at 25° C. [3]: 10.5

OCC1CCCCN1 (stereo not shown) [2-piperidinylmethanol]
pKa at 25° C. ([3]; Table 8): 10.1 | pKa at 25° C. [3]: 10.1

NCc1cccnc1 [3-AMPy, 3-(aminomethyl)pyridine]
ΔH° of log K carb Prot 2 [1]: −14.5 kJ · mol^−1 | ΔH° of log K prot [1]: −50.6 kJ · mol^−1 | ΔS° of log K carb Prot 2 [1]: −15.2 J · mol^−1 · K^−1 | ΔS° of log K prot [1]: 0.8 J · mol^−1 · K^−1 | log K carb Prot 2 ([1]; 15 °C): 3.42 | log K prot ([1]; 15 °C): 9.11 | log K carb Prot 2 ([1]; 25 °C): 3.34 | log K prot ([1]; 25 °C): 8.83 | log K carb Prot 2 ([1]; 35 °C): 3.25 | log K prot ([1]; 35 °C): 8.51 | log K carb Prot 2 ([1]; 45 °C): 3.17 | log K prot ([1]; 45 °C): 8.26 | concentration achieved before precipitation of the carbamate salt [4]: 80 wt % | pKa ([2]; 25 °C, read-out: pKa): 8.6 | pKa [2, 6]: 8.8 | ΔH° of log K carb ([5]; 15.0-45.0 °C): −36.83 kJ · mol^−1 | ΔS° of log K carb ([5]; 15.0-45.0 °C): 82.97 J · mol^−1 · K^−1 | log K carb (carbamate stability constant) ([5]; 15 °C): 2.34 | log K carb (carbamate stability constant) ([5]; 25 °C): 2.11 | log K carb (carbamate stability constant) ([5]; 35 °C): 1.93 | log K carb (carbamate stability constant) ([5]; 45 °C): 1.70

Nc1cccnc1 [3-Aminopyridine, reference compound]
pKa of conjugate acid at 25° C. in water ([3]; Table 7, aniline and aminopyridines): 6.3

NCc1ccncc1 [4-AMPy, 4-(aminomethyl)pyridine]
ΔH° of log K carb Prot 2 [1]: −25.5 kJ · mol^−1 | ΔH° of log K prot [1]: −53.9 kJ · mol^−1 | ΔS° of log K carb Prot 2 [1]: 15.3 J · mol^−1 · K^−1 | ΔS° of log K prot [1]: 19.6 J · mol^−1 · K^−1 | log K carb Prot 2 ([1]; 15 °C): 3.84 | log K prot ([1]; 15 °C): 8.77 | log K carb Prot 2 ([1]; 25 °C): 3.65 | log K prot ([1]; 25 °C): 8.43 | log K carb Prot 2 ([1]; 35 °C): 3.48 | log K prot ([1]; 35 °C): 8.08 | log K carb Prot 2 ([1]; 45 °C): 3.41 | log K prot ([1]; 45 °C): 7.86 | pKa ([2]; 25 °C, read-out: pKa): 8.6 | pKa [2, 6]: 8.4 | ΔH° of log K carb ([5]; 15.0-45.0 °C): −30.05 kJ · mol^−1 | ΔH° of log K carb Prot ([5]; 15.0-45.0 °C): −38.08 kJ · mol^−1 | ΔS° of log K carb ([5]; 15.0-45.0 °C): −58.97 J · mol^−1 · K^−1 | ΔS° of log K carb Prot ([5]; 15.0-45.0 °C): 4.91 J · mol^−1 · K^−1 | log K carb (carbamate stability constant) ([5]; 15 °C): 2.35 | log K carb Prot ([5]; 15 °C): 7.15 | log K carb (carbamate stability constant) ([5]; 25 °C): 2.22 | log K carb Prot ([5]; 25 °C): 6.95 | log K carb (carbamate stability constant) ([5]; 35 °C): 2.02 | log K carb Prot ([5]; 35 °C): 6.69 | log K carb (carbamate stability constant) ([5]; 45 °C): 1.84 | log K carb Prot ([5]; 45 °C): 6.52

OCC1CCNCC1 [4-piperidinylmethanol]
pKa at 25° C. ([3]; Table 8): 10.6 | pKa at 25° C. [3]: 10.6

NCc1ccccc1 [BZA, benzylamine, reference compound]
ΔH° of log K prot [1]: −59.5 kJ · mol^−1 | ΔS° of log K prot [1]: 20 J · mol^−1 · K^−1 | log K prot ([1]; 15 °C): 9.77 | log K prot ([1]; 25 °C): 9.43 | log K prot ([1]; 35 °C): 8.95 | log K prot ([1]; 45 °C): 8.61 | ΔH° of log K carb ([5]; 15.0-45.0 °C): −36 kJ · mol^−1 | ΔS° of log K carb ([5]; 15.0-45.0 °C): −82 J · mol^−1 · K^−1 | log K carb (carbamate stability constant) ([5]; 15 °C): 2.20 | log K carb (carbamate stability constant) ([5]; 25 °C): 2.01 | log K carb (carbamate stability constant) ([5]; 35 °C): 1.81 | log K carb (carbamate stability constant) ([5]; 45 °C): 1.58

NCCO [MEA, monoethanolamine, reference compound]
ΔH° of log K carb ([5]; 15.0-45.0 °C): −18 kJ · mol^−1 | ΔS° of log K carb ([5]; 15.0-45.0 °C): −35 J · mol^−1 · K^−1 | log K carb (carbamate stability constant) ([5]; 15 °C): 1.85 | log K carb (carbamate stability constant) ([5]; 25 °C): 1.76 | log K carb (carbamate stability constant) ([5]; 35 °C): 1.66 | log K carb (carbamate stability constant) ([5]; 45 °C): 1.55
